Assay results: patent US7186831B2, “5-halo-2-alkyl[1,2,4]triazolo[1,5-a]pyrimidin-7-amines” (priority 2001, dated 2007)

assay: log P by HPLC; type: physicochemical; details: EEC directive 79/831 Annex V. A8 by HPLC (gradient method, acetonitrile/0.1% aqueous phosphoric acid)

logP	Structure (SMILES)
3.9	Fc1cc(F)c(-c2c(Cl)nc3nc(C4CC4)nn3c2NC2CCCC2)c(F)c1 [compound 463]
3.29	COCCN(C)c1c(-c2c(F)cc(F)cc2F)c(Cl)nc2nc(C3CC3)nn12 [compound 468]
2.6	Cc1nc2nc(Cl)c(-c3c(F)cccc3F)c(N3CCC4(CC3)OCCO4)n2n1 [compound 309]
2.67	C#CCN(C)c1c(-c2ccc(F)cc2F)c(Cl)nc2nc(C)nn12 [compound 351]
3.39	CCCN(CC1CCCO1)c1c(-c2c(F)cccc2F)c(Cl)nc2nc(C)nn12 (centres unmarked) [compound 347]
3.83	Fc1cccc(Cl)c1-c1c(Cl)nc2nc(C3CC3)nn2c1NC1CCCC1 [compound 479]
1.95	Cc1nc2nc(Cl)c(-c3ccc(F)cc3F)c(N3CCC(O)C3)n2n1 (centres unmarked) [compound 415]
3.36	CCCN(CCOC)c1c(-c2ccccc2Cl)c(Cl)nc2nc(C)nn12 [compound 416]
1.91	Cc1nc2nc(Cl)c(-c3c(F)cccc3F)c(NCC#N)n2n1 [compound 420]
4.32	C=C(C)CN(C)c1c(-c2ccccc2Cl)c(Cl)nc2nc(C3CC3)nn12 [compound 496]
2.2	Cc1nc2nc(Cl)c(-c3ccc(F)cc3F)c(N3CCCC(O)C3)n2n1 (centres unmarked) [compound 452]
4.03	Fc1ccc(-c2c(Cl)nc3nc(C4CC4)nn3c2N2CCCCC2)c(F)c1 [compound 517]
3.03	CCN(CCOC)c1c(-c2c(F)cccc2Cl)c(Cl)nc2nc(C)nn12 [compound 269]
2.59	Cc1nc2nc(Cl)c(-c3ccccc3F)c(NOC3CCCCO3)n2n1 (centres unmarked) [compound 375]
1.19	Cc1nc2nc(Cl)c(-c3c(F)cccc3F)c(N3CCC(N)C3)n2n1 (centres unmarked) [compound 441]
3.43	Fc1cc(F)c(-c2c(Cl)nc3nc(C4CC4)nn3c2NCC2CC2)c(F)c1 [compound 465]
2.85	CCOC(=O)CN(CC)c1c(-c2c(F)cccc2F)c(Cl)nc2nc(C)nn12 [compound 343]
3.58	Fc1ccc(-c2c(Cl)nc3nc(C4CC4)nn3c2N2CCCCN2)c(Cl)c1 [compound 504]
3.3	C=C(C)CN(C)c1c(-c2c(F)cccc2F)c(Cl)nc2nc(C)nn12 [compound 337]
3.01	Cc1ccc(Nc2c(-c3c(F)cccc3F)c(Cl)nc3nc(C)nn23)cc1 [compound 444]
3.69	CC(C)CNc1c(-c2c(F)cc(F)cc2F)c(Cl)nc2nc(C3CC3)nn12 [compound 460]
2.5	CC(=O)C1CCN(c2c(-c3ccc(F)cc3F)c(Cl)nc3nc(C)nn23)CC1 [compound 289]
3.58	CC(Nc1c(-c2c(F)cc(F)cc2F)c(Cl)nc2nc(C3CC3)nn12)C(F)(F)F (centres unmarked) [compound 458]

same assay, conditions: HPLC, gradient method, acetonitrile/0.1% aqueous phosphoric acid; EEC directive 79/831 Annex V. A8

logP	Structure (SMILES)
4.24	CC(Nc1c(-c2c(F)cc(F)cc2F)c(Cl)nc2nc(C(C)(C)C)nn12)C(F)(F)F (centres unmarked) [compound 9]
5.03	CC1(C)CCN(c2c(-c3ccc(F)cc3F)c(Cl)nc3nc(C(F)(F)F)nn23)CC1 [compound 800]
4.04	CCN(CCOC)c1c(-c2c(F)cc(F)cc2F)c(Cl)nc2nc(C(F)(F)F)nn12 [compound 31]
2.69	Cc1nc2nc(Cl)c(-c3ccc(F)cc3F)c(NC(C)C)n2n1 [compound 196]
3.14	CCOC(=O)CN(CC)c1c(-c2c(F)cc(F)cc2F)c(Cl)nc2nc(C)nn12 [compound 160]
3.58	Fc1ccc(-c2c(Cl)nc3nc(C(F)(F)F)nn3c2NCC(F)(F)F)c(F)c1 [compound 532]
2.75	CCCNc1c(-c2c(F)cc(F)cc2F)c(Cl)nc2nc(C)nn12 [compound 61]
3.24	CCN(CC)c1c(-c2ccccc2Cl)c(Cl)nc2nc(C)nn12 [compound 242]
3.68	Fc1cc(F)c(-c2c(Cl)nc3nc(C4CC4)nn3c2N2CCC(F)CC2)c(F)c1 [compound 675]
4.07	CCCN(CC1CC1)c1c(-c2ccccc2Cl)c(Cl)nc2nc(C)nn12 [compound 243]
4.18	CCCCN(CC)c1c(-c2ccccc2Cl)c(Cl)nc2nc(C)nn12 [compound 247]
2.64	COCC(C)Nc1c(-c2c(F)cc(F)cc2F)c(Cl)nc2nc(C)nn12 (centres unmarked) [compound 116]
3.72	FC(F)(F)CNc1c(-c2ccc(Cl)cc2Cl)c(Cl)nc2nc(C3CC3)nn12 [compound 742]
2.8	CCOC(=O)CN(C)c1c(-c2c(F)cc(F)cc2F)c(Cl)nc2nc(C)nn12 [compound 150]
3.55	CCN(Cc1ccco1)c1c(-c2c(F)cc(F)cc2F)c(Cl)nc2nc(C)nn12 [compound 158]
4.21	C=C(C)CN(C)c1c(-c2c(F)cccc2Cl)c(Cl)nc2nc(C3CC3)nn12 [compound 700]
3.65	CC(C)CN(N)c1c(-c2c(F)cc(F)cc2F)c(Cl)nc2nc(C3CC3)nn12 [compound 773]
3.35	Cc1nc2nc(Cl)c(-c3ccc(Cl)cc3Cl)c(N3CCCCN3)n2n1 [compound 784]
3.7	CCCN(CC1CCCO1)c1c(-c2ccccc2Cl)c(Cl)nc2nc(C)nn12 (centres unmarked) [compound 244]
3.54	CCOC(=O)CN(CC)c1c(-c2ccc(F)cc2F)c(Cl)nc2nc(C3CC3)nn12 [compound 595]

logP	Structure (SMILES)
2.62	Cc1nc2nc(Cl)c(-c3c(F)cccc3F)c(NCC3CC3)n2n1 [compound 181]
3.21	C#CCN(C)c1c(-c2ccc(F)cc2F)c(Cl)nc2nc(C3CC3)nn12 [compound 662]
2.12	CNc1c(-c2c(F)cc(F)cc2F)c(Cl)nc2nc(C)nn12 [compound 90]
3.37	Fc1ccc(-c2c(Cl)nc3nc(C4CC4)nn3c2NCC(F)(F)F)c(Cl)c1 [compound 638]
4.08	Cc1ccc(Nc2c(-c3ccc(F)cc3F)c(Cl)nc3nc(C(F)(F)F)nn23)cc1 [compound 813]
3.39	Cc1nc2nc(Cl)c(-c3c(F)cccc3F)c(NC3CCC(C(F)(F)F)CC3)n2n1 (centres unmarked) [compound 190]
3.99	CCc1nc2nc(Cl)c(-c3c(F)cc(F)cc3F)c(N3CCC(C(F)(F)F)CC3)n2n1 [compound 2]
3.26	CCN(CC1CCCO1)c1c(-c2c(F)cc(F)cc2F)c(Cl)nc2nc(C)nn12 (centres unmarked) [compound 159]
3.19	Cc1nc2nc(Cl)c(-c3ccc(F)cc3Cl)c(NC(C)C(F)(F)F)n2n1 (racemic) [compound 640]
3.91	C=C(C)CN(CC)c1c(-c2c(F)cccc2Cl)c(Cl)nc2nc(C)nn12 [compound 114]
4.14	Fc1ccc(-c2c(Cl)nc3nc(C4CC4)nn3c2N2CCCC2C(F)(F)F)c(F)c1 (centres unmarked) [compound 729]
4.27	CCc1nc2nc(Cl)c(-c3c(F)cc(F)cc3F)c(N3CCCCC3C(F)(F)F)n2n1 (centres unmarked) [compound 94]
4.4	CC(C)(C)CNc1c(-c2ccc(F)cc2F)c(Cl)nc2nc(C(F)(F)F)nn12 [compound 527]
4.47	Fc1ccc(-c2c(Cl)nc3nc(C(F)(F)F)nn3c2NC2CCCCC2)c(F)c1 [compound 556]
3.2	Cc1nc2nc(Cl)c(-c3ccccc3Cl)c(N(C)Cc3ccco3)n2n1 [compound 238]
4.17	CC1C=CC(C)N1c1c(-c2c(F)cc(F)cc2F)c(Cl)nc2nc(C3CC3)nn12 (centres unmarked) [compound 582]
3.23	CCc1nc2nc(Cl)c(-c3c(F)cc(F)cc3F)c(NCC3CC3)n2n1 [compound 81]
4.77	C=C(C)CN(CC)c1c(-c2ccc(F)cc2Cl)c(Cl)nc2nc(C3CC3)nn12 [compound 630]
2.79	Cc1nc2nc(Cl)c(-c3ccc(F)cc3F)c(N3OCCC3C)n2n1 (centres unmarked) [compound 695]
3.92	Cc1nc2nc(Cl)c(-c3ccccc3Cl)c(N3CCCC(C)C3)n2n1 (centres unmarked) [compound 229]

logP	Structure (SMILES)
4.73	C=C(C)CN(CC)c1c(-c2c(F)cc(F)cc2F)c(Cl)nc2nc(C(F)(F)F)nn12 [compound 10]
3.52	Cc1nc2nc(Cl)c(-c3c(F)cc(F)cc3F)c(N3C(C)C=CC3C)n2n1 (centres unmarked) [compound 117]
4.76	Fc1cc(F)c(-c2c(Cl)nc3nc(C(F)(F)F)nn3c2N2CCCCC2C(F)(F)F)c(F)c1 (centres unmarked) [compound 109]
3	Cc1nc2nc(Cl)c(-c3c(F)cc(F)cc3F)c(N3CC(C)OC(C)C3)n2n1 (centres unmarked) [compound 58]
3.65	Cc1nc2nc(Cl)c(-c3ccccc3Cl)c(N(C)CC(C)C)n2n1 [compound 221]
2.84	CCN(CCOC)c1c(-c2ccc(F)cc2F)c(Cl)nc2nc(C)nn12 [compound 128]
4.19	CC1C=CC(C)N1c1c(-c2ccccc2Cl)c(Cl)nc2nc(C3CC3)nn12 (centres unmarked) [compound 580]
3.32	Cc1nc2nc(Cl)c(-c3ccc(F)c(Cl)c3)c(NC(C)C(F)(F)F)n2n1 (centres unmarked) [compound 97]
3.46	CCN(CCOC)c1c(-c2ccc(F)cc2F)c(Cl)nc2nc(C3CC3)nn12 [compound 594]
2.91	N#CCNc1c(-c2c(F)cc(F)cc2F)c(Cl)nc2nc(C(F)(F)F)nn12 [compound 24]
2.97	Cc1nc2nc(Cl)c(-c3c(F)cccc3F)c(NC3CCCC3)n2n1 [compound 173]
3.47	Fc1cccc(F)c1-c1c(Cl)nc2nc(C3CC3)nn2c1N1CCCCO1 [compound 753]
2.83	C=C(C)CNc1c(-c2ccccc2Cl)c(Cl)nc2nc(C)nn12 [compound 217]
3.25	Fc1cccc(F)c1-c1c(Cl)nc2nc(C3CC3)nn2c1N1CCCC1 [compound 679]
4.32	CC(C)CN(C)c1c(-c2c(F)cccc2Cl)c(Cl)nc2nc(C3CC3)nn12 [compound 698]
3.66	Fc1cccc(F)c1-c1c(Cl)nc2nc(C3CC3)nn2c1NC1CCCC1 [compound 740]
3.11	CCOC(=O)CN(CC)c1c(-c2ccccc2Cl)c(Cl)nc2nc(C)nn12 [compound 240]
2.2	Cc1nc2nc(Cl)c(-c3c(F)cccc3F)c(N3CCOCC3)n2n1 [compound 176]
1.46	CCN(CCN(C)C)c1c(-c2c(F)cccc2F)c(Cl)nc2nc(C)nn12 [compound 567]
3.01	CCC(C)Nc1c(-c2ccc(F)cc2F)c(Cl)nc2nc(C)nn12 (centres unmarked) [compound 194]
